Experimental findings from ChEMBL document CHEMBL1128399, “Annulated heterocyclic bioisosteres of norarecoline. Synthesis and molecular pharmacology at five recombinant human muscarinic acetylcholine receptors” (J Med Chem, 1995) are described below.

Assay [1] concerns the target Muscarinic acetylcholine receptor. The experiment in a line: In vitro binding affinity to the Muscarinic acetylcholine receptor by displacing [3H]PZ from the rat brain tissues.
The target is the same in assay [2]. The experiment in a line: In vitro binding affinity to the Muscarinic acetylcholine receptor by displacing [3H]- Oxo-M from the rat brain tissues.
The target is the same in assay [3]. The experiment in a line: In vitro binding affinity to the Muscarinic acetylcholine receptor by displacing [3H]-QNB from the rat heart tissues. Format: protein assay.
Assay [4] has the same target. The experiment in a line: In vitro binding affinity to the Muscarinic acetylcholine receptor by displacing [3H]QNB from the rat brain tissues.
Assay [5] concerns the target Muscarinic acetylcholine receptor M3 (Homo sapiens, UniProt P20309). The experiment in a line: In Vitro activity at the cloned Human Muscarinic acetylcholine receptor M3 determined by receptor selection and amplification technology (R-SAT).
Assay [6] deals with T1, Muscarinic acetylcholine receptor M2 (Homo sapiens, UniProt P08172).
T1 sequence (P08172 whole entry): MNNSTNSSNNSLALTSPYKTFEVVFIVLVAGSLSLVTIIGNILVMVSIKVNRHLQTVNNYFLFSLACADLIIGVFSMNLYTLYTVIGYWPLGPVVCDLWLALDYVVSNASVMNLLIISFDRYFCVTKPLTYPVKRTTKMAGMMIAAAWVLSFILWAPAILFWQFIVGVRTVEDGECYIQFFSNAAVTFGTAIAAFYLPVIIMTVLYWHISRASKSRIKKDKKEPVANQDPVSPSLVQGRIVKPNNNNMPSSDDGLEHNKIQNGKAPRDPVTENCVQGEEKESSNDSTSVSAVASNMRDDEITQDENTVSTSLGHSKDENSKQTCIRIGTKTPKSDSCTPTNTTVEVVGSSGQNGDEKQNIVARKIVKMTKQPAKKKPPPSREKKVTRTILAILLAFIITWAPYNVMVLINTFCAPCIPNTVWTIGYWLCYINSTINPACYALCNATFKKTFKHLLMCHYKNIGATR
The experiment in a line: In Vitro activity at the cloned Human Muscarinic acetylcholine receptor M2 determined by receptor selection and amplification technology (R-SAT).

Assay [7] deals with Muscarinic acetylcholine receptor. The experiment in a line: In vitro binding affinity to the Muscarinic acetylcholine receptor by displacing [3H]OXO-M from the rat brain tissues.
Assay [8] addresses T2, Muscarinic acetylcholine receptor M1 (Homo sapiens, UniProt P11229).
T2 sequence (P11229 whole entry): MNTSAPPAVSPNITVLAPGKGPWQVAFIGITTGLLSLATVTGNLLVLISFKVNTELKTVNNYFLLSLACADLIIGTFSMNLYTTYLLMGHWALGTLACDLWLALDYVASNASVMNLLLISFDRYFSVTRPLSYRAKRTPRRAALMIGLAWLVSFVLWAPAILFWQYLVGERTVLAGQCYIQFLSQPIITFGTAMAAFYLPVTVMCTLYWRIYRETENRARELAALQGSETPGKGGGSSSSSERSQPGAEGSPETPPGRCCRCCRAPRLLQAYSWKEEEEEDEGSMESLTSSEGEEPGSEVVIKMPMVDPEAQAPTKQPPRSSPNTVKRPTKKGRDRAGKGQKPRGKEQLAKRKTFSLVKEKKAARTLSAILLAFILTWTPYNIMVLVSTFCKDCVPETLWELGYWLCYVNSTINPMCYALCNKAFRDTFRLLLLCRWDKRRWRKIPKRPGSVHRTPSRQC
The experiment in a line: In Vitro evaluation activity at the cloned Human Muscarinic acetylcholine receptor M1 determined by receptor selection and amplification technology (R-SAT).

Assay [9] relates to Muscarinic acetylcholine receptors (Rattus norvegicus). The experiment in a line: Relative efficacy and M1 selectivity by agonist index.
For assay [10], the target named is T3, Muscarinic acetylcholine receptor M4 (Homo sapiens, UniProt P08173).
T3 sequence (P08173 whole entry): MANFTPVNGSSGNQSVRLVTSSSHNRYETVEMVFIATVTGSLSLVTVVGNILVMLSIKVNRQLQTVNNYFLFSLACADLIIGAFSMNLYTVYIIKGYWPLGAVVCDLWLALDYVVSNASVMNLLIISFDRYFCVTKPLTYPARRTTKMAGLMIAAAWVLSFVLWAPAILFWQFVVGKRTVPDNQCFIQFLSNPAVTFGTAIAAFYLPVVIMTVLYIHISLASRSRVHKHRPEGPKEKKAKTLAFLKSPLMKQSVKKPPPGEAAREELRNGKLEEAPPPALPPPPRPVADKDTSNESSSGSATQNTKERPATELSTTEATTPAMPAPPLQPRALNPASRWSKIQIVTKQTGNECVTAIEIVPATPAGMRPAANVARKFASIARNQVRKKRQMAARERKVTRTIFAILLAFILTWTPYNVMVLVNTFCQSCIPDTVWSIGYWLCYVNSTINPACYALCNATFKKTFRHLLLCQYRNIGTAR
The experiment in a line: In Vitro activity at the cloned Human Muscarinic acetylcholine receptor M4 determined by receptor selection and amplification technology (R-SAT).

For assay [11], the target named is T4, Muscarinic acetylcholine receptor M5 (Homo sapiens, UniProt P08912).
T4 sequence (P08912 whole entry): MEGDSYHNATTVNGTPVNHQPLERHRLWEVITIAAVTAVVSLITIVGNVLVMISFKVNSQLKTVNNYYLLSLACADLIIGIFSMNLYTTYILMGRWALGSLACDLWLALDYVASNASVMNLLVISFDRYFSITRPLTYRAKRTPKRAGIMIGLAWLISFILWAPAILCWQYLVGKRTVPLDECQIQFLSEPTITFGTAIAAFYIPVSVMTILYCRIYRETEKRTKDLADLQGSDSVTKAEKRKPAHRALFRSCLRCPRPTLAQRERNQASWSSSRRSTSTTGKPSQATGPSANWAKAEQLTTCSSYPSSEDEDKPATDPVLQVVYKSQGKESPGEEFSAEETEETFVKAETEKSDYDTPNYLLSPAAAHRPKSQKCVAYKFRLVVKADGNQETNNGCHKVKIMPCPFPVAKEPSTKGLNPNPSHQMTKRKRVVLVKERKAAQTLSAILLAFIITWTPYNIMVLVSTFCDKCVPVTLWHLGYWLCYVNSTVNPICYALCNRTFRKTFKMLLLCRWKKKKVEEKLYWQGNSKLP
The experiment in a line: In Vitro activity at the cloned Human Muscarinic acetylcholine receptor M5 determined by receptor selection and amplification technology (R-SAT).

The structures appear in SMILES notation. pEC50: −log10 of the molar value.

A word on the IC50: it is the point on the concentration scale where inhibition reaches its midpoint. A high value points to weaker potency. For orientation: pEC50 means the negative decadic logarithm of the EC50, by convention in mol/L. Low values mean a large EC50, high ones a small EC50.

Chain of Muscarinic acetylcholine receptor M3 (P20309 whole entry): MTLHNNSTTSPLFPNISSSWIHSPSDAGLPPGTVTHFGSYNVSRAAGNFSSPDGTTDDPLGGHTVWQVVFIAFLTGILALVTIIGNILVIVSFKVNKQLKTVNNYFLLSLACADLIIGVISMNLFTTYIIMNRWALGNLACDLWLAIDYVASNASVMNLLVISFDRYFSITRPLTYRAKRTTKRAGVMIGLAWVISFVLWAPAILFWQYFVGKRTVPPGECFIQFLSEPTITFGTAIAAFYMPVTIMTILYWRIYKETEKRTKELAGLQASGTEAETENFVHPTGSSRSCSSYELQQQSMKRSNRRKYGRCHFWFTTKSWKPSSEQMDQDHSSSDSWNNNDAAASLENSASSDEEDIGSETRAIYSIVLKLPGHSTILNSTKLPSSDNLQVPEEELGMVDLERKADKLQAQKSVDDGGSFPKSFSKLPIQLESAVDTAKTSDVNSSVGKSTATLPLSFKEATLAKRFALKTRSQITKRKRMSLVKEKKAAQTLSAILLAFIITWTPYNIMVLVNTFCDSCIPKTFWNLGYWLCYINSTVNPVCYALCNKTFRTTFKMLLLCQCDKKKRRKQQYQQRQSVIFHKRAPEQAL

In the case of `O=C1CCCN1CC#CCN1CCCC1` [OXOTREMORINE], the concentration for half-maximal inhibition (IC50) came to 93 nM in assay [1], 1.2 nM in assay [2], 84 nM in assay [3] and 2300 nM in assay [4].

Regarding `CCOc1noc2c1CNCCC2`, the IC50 was found to be 18 nM in [1], 3.4 nM in [7], 140 nM in assay [3] and 530 nM in [4]. Further, the pEC50 was 6.30 in [5], 7.39 in assay [6], 7.02 in assay [8] and 7.17 in assay [10]. Besides, the Agonist index in [9] is 25.

Consider `CC(C)Oc1noc2c1CNCCC2`, for which the IC50 in assay [1] stood at 13 nM; in [7] it was 11 nM; in [3] it was 360 nM; in [4], 370 nM. In addition, the Agonist index in assay [9] amounted to 5.4.

Regarding `C#CCOc1noc2c1CNCCC2`, the concentration for half-maximal inhibition (IC50) is 23 nM in assay [1], 0.75 nM in [7], 82 nM in assay [3] and 480 nM in assay [4]. The negative logarithm of the EC50 (pEC50) in assay [5] was 6.89; in [6], 8.17; in [11] it was 6.02; in [8] it was 6.85; in [10], 7.52. The same compound yielded an Agonist index in assay [9] of 104.

For `COc1noc2c1CNCCC2`, the IC50 in assay [1] was 390 nM; in assay [7] it was 10 nM; in assay [3], 350 nM; in assay [4], 6400 nM. Moreover, the pEC50 in [5] is 6.21; in assay [6], 7.37; in assay [11], 5.33; in assay [8] it was 6.34; in assay [10], 6.62. Besides, the Agonist index in assay [9] is 104.
